± gives the expanded uncertainty stated by the source.
Test: Molar enthalpy of transition or fusion
Conditions: Crystal; DSC

Molar enthalpy of transition or fusion [kcal/mol] | Compound
5.17 ± 0.155 | Oc1cccc2ccccc12 [1-naphthol]
5.04 ± 0.151 | Oc1ccc2ccccc2c1 [2-hydroxynaphthalene]
5.34 ± 0.16 | COc1cc(C=O)ccc1O [vanillin]
